How the values were obtained:
[1] = molecular target: T1, Invertase from Candida utilis (Williopsis jadinii, UniProt O94224); test: glucose release from sucrose, capillary electrophoresis of PMP derivatives; format: biochemical; conditions: substrate sucrose (100 µg), acetate buffer pH 4.5, 15 min
T1 construct: gene INV1; commercial native enzyme, Seikagaku Biobusiness Corporation
T1 sequence (O94224 1-533): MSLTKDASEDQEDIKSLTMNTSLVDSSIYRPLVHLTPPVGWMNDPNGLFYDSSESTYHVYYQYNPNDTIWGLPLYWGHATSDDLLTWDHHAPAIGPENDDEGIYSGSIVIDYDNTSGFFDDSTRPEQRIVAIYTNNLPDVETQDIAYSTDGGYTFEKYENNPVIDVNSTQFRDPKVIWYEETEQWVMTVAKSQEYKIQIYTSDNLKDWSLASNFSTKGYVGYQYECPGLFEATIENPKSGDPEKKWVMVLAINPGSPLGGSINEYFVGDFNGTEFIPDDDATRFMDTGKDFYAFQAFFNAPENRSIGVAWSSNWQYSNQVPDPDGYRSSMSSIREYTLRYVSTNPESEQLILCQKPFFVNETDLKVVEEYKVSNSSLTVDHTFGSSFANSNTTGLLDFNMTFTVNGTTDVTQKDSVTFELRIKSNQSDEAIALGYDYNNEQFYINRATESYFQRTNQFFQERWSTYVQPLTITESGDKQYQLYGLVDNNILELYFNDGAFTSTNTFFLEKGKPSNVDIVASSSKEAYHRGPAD
Text: glucose release from sucrose, capillary electrophoresis of PMP derivatives on Invertase from Candida utilis

[2] = molecular target: T2, maltase (α-(1-4) glucosidase) from Saccharomyces; test: glucose release from maltose, capillary electrophoresis of PMP derivatives; format: biochemical; conditions: substrate maltose; citric buffer pH 6.8 or acetate buffer pH 4.5 (text does not assign clearly), 15 min
T2 construct: gene MAL12; commercial enzyme, Sigma-Aldrich Japan
Text: glucose release from maltose, capillary electrophoresis of PMP derivatives on maltase (α-(1-4) glucosidase) from Saccharomyces

IC50 [1]: 1170 µM
IC50 [2]: 1720 µM
Compound: OC[C@H]1OC(O)[C@H](O)[C@@H](O)[C@@H]1OC[C@H]1OC(O)(CO)[C@@H](O)[C@@H]1O (some centres unmarked) [maplebiose1]

Reference: publication PMC6834145, “Identification of a Novel Oligosaccharide in Maple Syrup as a Potential Alternative Saccharide for Diabetes Mellitus Patients” (International Journal of Molecular Sciences, 2019)
